Experimental data taken from patent US4742059A, “Substituted quinoxalinediones and their methods of use” (American Cyanamide Company, priority 1987, dated 1988).
Where two headings read alike, the source gives them in different places.

How the values were obtained:
[1] = test system: immunologically stimulated human basophils; experiment: Inhibition of histamine release from immunologically stimulated human basophils; format: cell-based; conditions: 1 h; human basophils challenged with anti-IgE or antigen; 60 minutes at 37° C.; active if ED50 ≤48 μM; read-out: ED50 (concentration which causes a 50% inhibition of histamine release)
Experimental: The novel compounds of this invention have been tested by the procedure of Lichtenstein, L. M. and Osler, A. G., J. Exp. Med., 120, 507-530 (1964), which evaluated the ability of compounds to inhibit mediator (histamine) release from immunologically stimulated human basophils.
Dissolve 140.3 g of sodium chloride, 7.45 g of potassium chloride and 74.5 g of Trizma-Tris Pre-Set, Reagent Grade, pH 7.6, at 25° C. (Sigma Chemical Co.) in sufficient water to give a final volume of 2 liters.
(Sigma Chemical Co.) (30 mg/ml)
Made to 0.75M and 0.5M respectively, with calcium chloride dihydrate and magnesium chloride hexahydrate.
A 10 ml portion of 10× Tris Buffer and 1.0 ml of human albumin are diluted to 100 ml with water.
A 10 ml portion of 10× Tris Buffer, 1.0 ml of human albumin, 0.8 ml of calcium stock and 0.2 ml of magnesium stock are diluted to 100 ml with water.
Behring Diagnostics (Generally used at […] final concentration).
Strength 1:100 (w:v) allergenic extract, Hollister-Stier Labs. Generally this is diluted 1:1000 to 1:10,000 (considering the vial as stock).
Intradermal solutions of intramuscular preparations for hyposensitization, Hollister-Stier Labs. The final concentration used is on the order of 1 PNU/ml.
Eighty milliliters of blood is withdrawn from subjects with known histamine release to anti-IgE, ragweed antigen or other specific allergen, using four 20 ml heparinized tubes. This 80 ml of blood is mixed with 20 ml of saline containing 0.6 g of dextrose and 1.2 g of dextran. The blood is allowed to sediment at room temperature in two 50 ml polycarbonate centrifuge tubes until a sharp interface develops between the red cells and plasma (60-90 minutes). The plasma (top) layer from each tube is withdrawn by pipet and transferred to respective 50 ml polycarbonate tubes. The plasma is centrifuged for 8 minutes at 110×G at 4° C. The supernatant is carefully poured off as completely as possible and the cell button is resuspended in 2-3 ml of Tris-A buffer using a silconized Pasteur pipet. The resuspension is accomplished by drawing the liquid gently in an out of the pipet, with the tip below the liquid, until and even suspension of cells is obtained. Sufficient Tris-A buffer is then added to bring the volume in the tube to about 45 ml and the tube is centrifuged at 110×G for 8 minutes at 4° C. The supernatant is poured off and the cell button is resuspended and centrifuged as described above. The supernatant is poured off and the cell button suspended in 2-3 ml of Tris-ACM buffer to make the final volume sufficient to allow addition to the reaction tubes.
Reaction tubes containing anti-IgE or antigens, either alone or with test compound in a total volume of 0.2 ml are prepared and placed in a 37° C. bath. The cells are warmed to 37° C. and frequently swirled to ensure and even suspension, while 1.0 ml aliquots are added to each reaction tube. The tubes are then incubated for 60 minutes at 37° C., vortexing the tubes gently every 15 minutes to keep the cells evenly suspended. When the reaction is complete, the tubes are centrifuged at 4° C. for 10 minutes at 1500 rpm to sediment the cells. One ml aliquots of supernatant are transferred to 12 mm by 75 mm polyethylene tubes and 0.2 ml of 8% perchloric acid is added to each tube. Blanks and totals are included in each test. The blanks have cells and all reagents except antigent or anti-IgE. The totals contain 0.24 ml of 8% perchloric acid, one ml of cells and 0.2 ml of buffer. […]

[2] = target: T1, Neutrophil Lipoxygenase (Cavia porcellus, UniProt A0A286X958); experiment: Inhibition of neutrophil lipoxygenase (release and biosynthesis of LTB4 and 5-HETE) in guinea pig neutrophils; format: cell-based; conditions: 10 μg/ml compound, 100 μM arachidonic acid and 20 μM calcium ionophore (A23187), the lower the percentage, the more active
T1 construct: peritoneal neutrophils derived from guinea pigs; endogenous in cells; host or cells: guinea pig peritoneal neutrophils
T1 sequence (A0A286X958 1-674): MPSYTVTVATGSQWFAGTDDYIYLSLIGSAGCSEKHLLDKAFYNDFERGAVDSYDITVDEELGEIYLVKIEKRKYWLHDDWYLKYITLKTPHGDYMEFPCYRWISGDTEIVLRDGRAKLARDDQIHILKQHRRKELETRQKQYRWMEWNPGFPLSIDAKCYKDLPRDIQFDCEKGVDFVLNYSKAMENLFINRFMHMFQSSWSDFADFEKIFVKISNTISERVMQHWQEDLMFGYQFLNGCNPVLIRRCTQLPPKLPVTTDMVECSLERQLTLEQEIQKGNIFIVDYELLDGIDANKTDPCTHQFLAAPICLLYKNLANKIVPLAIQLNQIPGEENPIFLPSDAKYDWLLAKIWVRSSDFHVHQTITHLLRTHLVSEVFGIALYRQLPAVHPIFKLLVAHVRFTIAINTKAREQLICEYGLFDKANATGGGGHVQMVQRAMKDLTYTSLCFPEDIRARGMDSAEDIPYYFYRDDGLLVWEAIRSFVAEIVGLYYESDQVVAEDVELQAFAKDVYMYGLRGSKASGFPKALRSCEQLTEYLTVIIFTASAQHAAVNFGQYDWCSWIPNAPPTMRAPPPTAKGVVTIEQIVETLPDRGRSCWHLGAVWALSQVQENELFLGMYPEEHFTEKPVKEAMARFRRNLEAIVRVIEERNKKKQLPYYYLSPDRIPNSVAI
Experimental: The ability of these compounds to inhibit lipoxygenase activity in terms of the suppression of the release and biosynthesis of leukotriene B4 (LTB4) and 5-hydroxyeicosatetraenoic acid (5-HETE) was measured as follows.
In this assay 3×10^7 peritoneal neutrophils derived from guinea pigs were incubated at 37° C. in Dulbeccos buffer containing 50 mM tris buffer (pH 7.4). Five minutes before the addition of 100 μM arachidonic acid and 20 μM calcium ionophore (A23187), control vehicle or the test compounds were added to the neutrophils at a concentration of 10 μg/ml.
Three minutes after the addition of arachidonic acid and calcium ionophore the total lipid was partitioned into chloroform after adjusting the pH to 3 with citric acid and the addition of equal parts of methanol and chloroform.
The 5-HETE and LTB4 were resolved by HPLC using a 5M, 4×25 cm octadecyl silica column (IBM Instruments) with 70-80% methanol in water adjusted to pH 3.0 with acetic acid. As the mobile phase was pumped at 1.0 ml/minute, LTB4 and 5-HETE were detected by absorbance at 270 and 236 nm, respectively.
LTB4 and 5-HETE were quantitated by comparison with the control and the results were expressed as a percent of control.

[3] = 5-HETE, read-out: 5-HETE, % of Control
[4] = LTB4, read-out: LTB4, % of Control

Row | IC50 [1] [µM] | remaining activity at 10 µg/mL [2, 3] [%] | remaining activity at 10 µg/mL [2, 4] [%] | SMILES
1 | 12.1 |  |  | O=C1C(N2CCN(Cc3ccccc3)CC2)=CC(=O)c2ncccc21 [6-[4-(Phenylmethyl)-1-piperazinyl]-5,8-quinolinedione]
2 |  | 22.7 | 35.8 | O=C1C=C(N2CCN(c3nc4ccccc4o3)CC2)C(=O)c2ncccc21 [7-[4-(2-Benzoxazolyl)-1-piperazinyl]-5,8-quinolinedione]
3 |  | 11.9 | 5.7 | O=C1C(N2CCN(c3cccc(C(F)(F)F)c3)CC2)=CC(=O)c2ncccc21 [6-[4-[3-(Trifluromethyl)phenyl]-1-piperazinyl]-5,8-quinolinediones]
4 | 6.6 | 1.6 | 0 | O=C1C=C(N2CCN(c3cccc(C(F)(F)F)c3)CC2)C(=O)c2nccnc21 [6-[4-[3-(Trifluoromethyl)phenyl]-1-piperazinyl]-5,8-quinoxalinedione]
5 | 17.4 |  |  | CCOC(=O)N1CCN(C2=CC(=O)c3ncccc3C2=O)CC1 [4-(5,8-Dihydro-5,8-dioxo-6-quinolyl)-1-piperazinecarboxylic acid ethyl ester]
6 |  | 36.9 | 8 | O=C1C(N2CCN(c3nc4ccccc4o3)CC2)=CC(=O)c2ncccc21 [6-[4-(2-Benzoxazolyl)-1-piperazinyl]-5,8-quinolinedione]
7 | 3.7 |  |  | CCOC(=O)N1CCN(C2=CC(=O)c3nccnc3C2=O)CC1 [4-(5,8-dihydro-5,8-dioxo-6-quinoxalinyl)-1-piperazine carboxylic acid ethyl ester]
8 | 1.2 | 67.2 | 8 | O=C1C=C(N2CCN(c3nc4ccccc4s3)CC2)C(=O)c2nccnc21 [6-[4-(2-Benzothiazoyl)-1-piperazinyl]-5,8-quinoxalinedione]
9 |  | 53.9 | 8 | O=C1C=C(N2CCN(Cc3ccccc3)CC2)C(=O)c2nccnc21 [6[4-(Phenylmethyl)-1-piperazinyl]-5,8-quinoxalinedione]
